Experimental data taken from paper PMC5553892, “A fourth subtype of retinoic acid receptor-related orphan receptors is activated by oxidized all-trans retinoic acid in medaka (Oryzias latipes)” (Zoological Letters, 2017).

Key:
Format in all cases: cell-based
RORd1 [1] = molecular target: T1, RORd1 (Oryzias latipes, UniProt H2LFF5); experiment: Gal4-RORd1 LBD luciferase reporter assay in stable HEK293 cells (agonist)
T1 construct: gene rorca
T1 sequence (H2LFF5 98-473): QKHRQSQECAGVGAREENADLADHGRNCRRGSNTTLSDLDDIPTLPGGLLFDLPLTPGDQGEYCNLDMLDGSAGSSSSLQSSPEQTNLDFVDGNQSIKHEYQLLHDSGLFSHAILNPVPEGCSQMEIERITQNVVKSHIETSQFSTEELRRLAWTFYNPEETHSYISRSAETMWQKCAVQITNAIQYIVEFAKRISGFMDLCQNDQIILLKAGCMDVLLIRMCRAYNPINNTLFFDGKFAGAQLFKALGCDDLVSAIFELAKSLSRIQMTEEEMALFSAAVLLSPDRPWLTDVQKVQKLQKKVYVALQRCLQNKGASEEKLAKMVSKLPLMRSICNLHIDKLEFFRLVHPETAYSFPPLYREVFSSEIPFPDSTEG

RORd1 [2] = molecular target: T1, RORd1; experiment: Gal4-RORd1 LBD luciferase reporter assay in stable HEK293 cells (weak agonist, […], EC50 not calculable)
RORd1 [3] = molecular target: T1, RORd1; experiment: as above; remark: listed apart in the source

Compound | EC50 (RORd1 [1]) [µM] | other results
CC1=C(/C=C/C(C)=C/C=C/C(C)=C/C(=O)O)C(C)(C)CCC1=O [4 K–ATRA, all-trans 4-ketoretinoic acid] | 0.737 ± 0.0473 | 
CC1=C(/C=C/C(C)=C/C=C/C(C)=C/C(=O)O)C(C)(C)CCC1O (stereo not drawn) [4OH-ATRA, all-trans 4-hydroxyretinoic acid] | 0.539 ± 0.0973 | 
CC(/C=C/C12OC1(C)CCCC2(C)C)=C\C=C\C(C)=C\C(=O)O (stereo not drawn) [5,6E–ATRA, all-trans 5,6-epoxyretinoic acid] |  | EC50 (RORd1 [2]): > 10 µM
CC1=C(/C=C/C(C)=C/C=C/C(C)=C/C(=O)O)C(C)(C)CCC1 [ATRA, all-trans retinoic acid] |  | EC50 (RORd1 [3]): > 10 µM
